Experimental data reported in ChEMBL document CHEMBL1201862, “PubChem BioAssay data set” (2004).
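In this assay, cells in 96-well plates receive the compound at five concentrations for 48 hours. Endpoints are linearly interpolated between the surrounding concentrations. GI50 is the concentration that inhibits growth by half.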 Calls of active or inactive are those of the source. No stated cut-off is given here; in the data, active = GI50 up to about 1.1 µM and inactive = higher.

Experiments:
Assay in all cases: NCI tumour cell line growth inhibition, 48 h
786-0 = system: 786-0
A498 = system: A498
A549 = system: A549
ACHN = system: ACHN
CAKI-1 = system: CAKI-1
CCRF-CEM = system: CCRF-CEM
COLO 205 = system: COLO 205
DLD-1 = system: DLD-1
DMS-114 = system: DMS-114
EKVX = system: EKVX
HCC 2998 = system: HCC 2998
HL-60 = system: HL-60
HOP-62 = system: HOP-62
HOP-92 = system: HOP-92
HT-29 = system: HT-29
IGROV-1 = system: IGROV-1
K562 = system: K562
KM-20L2 = system: KM-20L2
KM12 = system: KM12
LOX IMVI = system: LOX IMVI
LXFL 529 = system: LXFL 529
M14 = system: M14
M19-MEL = system: M19-MEL
MOLT-4 = system: MOLT-4
Malme-3M = system: Malme-3M
NCI-H226 = system: NCI-H226
NCI-H23 = system: NCI-H23
NCI-H460 = system: NCI-H460
NCI-H522 = system: NCI-H522
OVCAR-3 = system: OVCAR-3
OVCAR-4 = system: OVCAR-4
OVCAR-5 = system: OVCAR-5
OVCAR-8 = system: OVCAR-8
RPMI-8226 = system: RPMI-8226
RXF 393 = system: RXF 393
SF-268 = system: SF-268
SF-295 = system: SF-295
SF-539 = system: SF-539
SK-MEL-28 = system: SK-MEL-28
SK-MEL-2 = system: SK-MEL-2
SK-MEL-5 = system: SK-MEL-5
SK-OV-3 = system: SK-OV-3
SN12C = system: SN12C
SNB-19 = system: SNB-19
SNB-75 = system: SNB-75
SNB-78 = system: SNB-78
SW-620 = system: SW-620
TK-10 = system: TK-10
U-251 = system: U-251
UACC-257 = system: UACC-257
UO-31 = system: UO-31
XF498 = system: XF498
BT-549 = system: BT-549
DU-145 = system: DU-145
HCT-116 = system: HCT-116
HCT-15 = system: HCT-15
Hs-578T = system: Hs-578T
MCF7 = system: MCF7
MDA-MB-231 = system: MDA-MB-231
MDA-MB-435 = system: MDA-MB-435
MDA-N = system: MDA-N
NCI/ADR-RES = system: NCI/ADR-RES
PC-3 = system: PC-3
SR = system: SR
T47D = system: T47D
UACC-62 = system: UACC-62

## CCOc1ccccc1NC(=O)C1=C(C)NC(C)=C(C(=O)Nc2ccccc2OCC)C1c1ccc2c(c1)OCO2
786-0
  GI50: 41.3 µM (inactive)
A498
  GI50: 34.9 µM (inactive)
A549
  GI50: 28.2 µM (inactive)
ACHN
  GI50: 36.8 µM (inactive)
CAKI-1
  GI50: 21.5 µM (inactive)
CCRF-CEM
  GI50: 24.2 µM (inactive)
COLO 205
  GI50: 18.2 µM (inactive)
DLD-1
  GI50: 22.2 µM (inactive)
DMS-114
  GI50: 16.9 µM (inactive)
EKVX
  GI50: 39.6 µM (inactive)
HCC 2998
  GI50: 10.1 µM (inactive)
HL-60
  GI50: 10.7 µM (inactive)
HOP-62
  GI50: 37.4 µM (inactive)
HOP-92
  GI50: 7.36 µM (inactive)
HT-29
  GI50: 37.2 µM (inactive)
IGROV-1
  GI50: 25 µM (inactive)
K562
  GI50: 6.01 µM (inactive)
KM-20L2
  GI50: 26.4 µM (inactive)
KM12
  GI50: 11.8 µM (inactive)
LOX IMVI
  GI50: 34 µM (inactive)
LXFL 529
  GI50: 17.9 µM (inactive)
M14
  GI50: 18.8 µM (inactive)
M19-MEL
  GI50: 30.1 µM (inactive)
MOLT-4
  GI50: 12.1 µM (inactive)
Malme-3M
  GI50: 26.2 µM (inactive)
NCI-H226
  GI50: 22 µM (inactive)
NCI-H23
  GI50: 23.9 µM (inactive)
NCI-H460
  GI50: 29.1 µM (inactive)
NCI-H522
  GI50: 9.89 µM (inactive)
OVCAR-3
  GI50: 17 µM (inactive)
OVCAR-4
  GI50: 20.8 µM (inactive)
OVCAR-5
  GI50: 53.2 µM (inactive)
OVCAR-8
  GI50: 47.3 µM (inactive)
RPMI-8226
  GI50: 17.4 µM (inactive)
RXF 393
  GI50: 16.8 µM (inactive)
SF-268
  GI50: 41.5 µM (inactive)
SF-295
  GI50: 21.2 µM (inactive)
SF-539
  GI50: 25.5 µM (inactive)
SK-MEL-28
  GI50: 35.2 µM (inactive)
SK-MEL-2
  GI50: 18.7 µM (inactive)
SK-MEL-5
  GI50: 11.1 µM (inactive)
SK-OV-3
  GI50: 18 µM (inactive)
SN12C
  GI50: 38.7 µM (inactive)
SNB-19
  GI50: 95.9 µM (inactive)
SNB-75
  GI50: 3.53 µM (inactive)
SNB-78
  GI50: 24.6 µM (inactive)
SW-620
  GI50: 38.4 µM (inactive)
TK-10
  GI50: 76.6 µM (inactive)
U-251
  GI50: 47.5 µM (inactive)
UACC-257
  GI50: 22 µM (inactive)
UO-31
  GI50: 21.8 µM (inactive)
XF498
  GI50: 12.8 µM (inactive)

## C=C(Cl)C(Cl)(CBr)CCC(Cl)C(C)C (centres undefined)
786-0
  GI50: 0.337 µM (active)
A498
  GI50: 5.21 µM (inactive)
A549
  GI50: 8.53 µM (inactive)
ACHN
  GI50: 2.92 µM (inactive)
BT-549
  GI50: 14.3 µM (inactive)
CAKI-1
  GI50: 1.77 µM (inactive)
CCRF-CEM
  GI50: 26.9 µM (inactive)
COLO 205
  GI50: 4.79 µM (inactive)
DU-145
  GI50: 1.37 µM (inactive)
EKVX
  GI50: 14.7 µM (inactive)
HCC 2998
  GI50: 4.22 µM (inactive)
HCT-116
  GI50: 1.37 µM (inactive)
HCT-15
  GI50: 5.46 µM
HL-60
  GI50: 0.226 µM (active)
HOP-62
  GI50: 1.25 µM (inactive)
HOP-92
  GI50: 1.6 µM (inactive)
HT-29
  GI50: 0.222 µM (active)
Hs-578T
  GI50: 1.16 µM (inactive)
IGROV-1
  GI50: 9.31 µM (inactive)
K562
  GI50: 30.8 µM (inactive)
KM12
  GI50: 1.23 µM (inactive)
LOX IMVI
  GI50: 11.6 µM (inactive)
M14
  GI50: 22.2 µM (inactive)
MCF7
  GI50: 1.12 µM (active)
MDA-MB-231
  GI50: 3.95 µM (inactive)
MDA-MB-435
  GI50: 6.98 µM (inactive)
MDA-N
  GI50: 3.72 µM (inactive)
MOLT-4
  GI50: > 39.9 µM (inactive)
Malme-3M
  GI50: 8.28 µM (inactive)
NCI-H226
  GI50: 30 µM (inactive)
NCI-H23
  GI50: 13.7 µM (inactive)
NCI-H460
  GI50: 1.98 µM (inactive)
NCI-H522
  GI50: 5.93 µM (inactive)
NCI/ADR-RES
  GI50: 8.55 µM (inactive)
OVCAR-3
  GI50: 1.32 µM (inactive)
OVCAR-4
  GI50: 8.17 µM (inactive)
OVCAR-5
  GI50: 10.8 µM (inactive)
OVCAR-8
  GI50: 3.19 µM (inactive)
PC-3
  GI50: 1.68 µM (inactive)
RPMI-8226
  GI50: 0.138 µM (active)
RXF 393
  GI50: 6.3 µM (inactive)
SF-268
  GI50: 1.72 µM (inactive)
SF-295
  GI50: 2.22 µM (inactive)
SF-539
  GI50: 1.3 µM (inactive)
SK-MEL-28
  GI50: 1.87 µM (inactive)
SK-MEL-2
  GI50: 0.619 µM (active)
SK-MEL-5
  GI50: 17.7 µM (inactive)
SK-OV-3
  GI50: 26.4 µM (inactive)
SN12C
  GI50: 13.2 µM (inactive)
SNB-19
  GI50: 4.04 µM (inactive)
SNB-75
  GI50: 0.323 µM (active)
SR
  GI50: > 36.6 µM (inactive)
SW-620
  GI50: 2.47 µM (inactive)
T47D
  GI50: 0.156 µM (active)
TK-10
  GI50: 1.33 µM (inactive)
U-251
  GI50: 0.647 µM (active)
UACC-257
  GI50: 1.37 µM (inactive)
UACC-62
  GI50: 3.08 µM (inactive)
UO-31
  GI50: 2.94 µM (inactive)

## C/C=C/c1cc(=O)c([C@@H]2OC(=O)c3cc(OC)cc(OC)c32)co1 [VERMISTATIN]
A549
  GI50: 58.6 µM (inactive)
ACHN
  GI50: 45.3 µM (inactive)
CAKI-1
  GI50: 42.1 µM (inactive)
CCRF-CEM
  GI50: 24.1 µM (inactive)
COLO 205
  GI50: 22 µM (inactive)
DMS-114
  GI50: 21.7 µM (inactive)
EKVX
  GI50: 65.5 µM (inactive)
HCC 2998
  GI50: 26 µM (inactive)
HCT-116
  GI50: 23.7 µM (inactive)
HL-60
  GI50: 27.4 µM (inactive)
HOP-62
  GI50: 53 µM (inactive)
HOP-92
  GI50: 49 µM (inactive)
HT-29
  GI50: 34.6 µM (inactive)
IGROV-1
  GI50: 37 µM (inactive)
K562
  GI50: 33.8 µM (inactive)
KM-20L2
  GI50: 67.5 µM (inactive)
KM12
  GI50: 31.6 µM (inactive)
LXFL 529
  GI50: 24.5 µM (inactive)
M14
  GI50: 58.7 µM (inactive)
M19-MEL
  GI50: 35.1 µM (inactive)
MOLT-4
  GI50: 38.6 µM (inactive)
NCI-H226
  GI50: 60.4 µM (inactive)
NCI-H23
  GI50: 29.6 µM (inactive)
NCI-H460
  GI50: 58.3 µM (inactive)
OVCAR-3
  GI50: 20.7 µM (inactive)
OVCAR-4
  GI50: 54.3 µM (inactive)
OVCAR-8
  GI50: 46.8 µM (inactive)
RPMI-8226
  GI50: 35.4 µM (inactive)
RXF 393
  GI50: 42.2 µM (inactive)
SF-268
  GI50: 43.5 µM (inactive)
SF-295
  GI50: 39.5 µM (inactive)
SF-539
  GI50: 26.7 µM (inactive)
SK-MEL-28
  GI50: 25.3 µM (inactive)
SK-MEL-2
  GI50: 28.5 µM (inactive)
SK-MEL-5
  GI50: 50.5 µM (inactive)
SNB-19
  GI50: > 100 µM (inactive)
SNB-75
  GI50: 6.49 µM (inactive)
SR
  GI50: 27.6 µM (inactive)
SW-620
  GI50: 55.5 µM (inactive)
TK-10
  GI50: 57.5 µM (inactive)
UACC-257
  GI50: 29.1 µM (inactive)
UACC-62
  GI50: 25.9 µM (inactive)
UO-31
  GI50: 24.4 µM (inactive)
